A word on the IC50: it is the midpoint of a concentration-inhibition curve.

Experimental findings from patent publication US12226405B2, “Compounds and compositions for inhibiting the activity of HIF2-alpha and their methods of use” (Novartis AG, priority 2020, dated 2025) are described below.

The subject of assay [1] is HIF2α-dependent transcription in 786-O-HRE-Luc cells. Nature of the assay: In vitro cellular hypoxia response element (HRE) reporter gene assay (RGA) for HIF2α. As to conditions: Homo sapiens, 24 hours incubation. Format: cell-based, human. The essentials: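 Renal carcinoma cells carrying a 4×HRE-driven PEST-destabilised firefly luciferase were treated a day after seeding with eleven 2-fold compound dilutions (0.1% DMSO) for 24 h at 37° C. BrightGlo luminescence, background-subtracted and expressed as % of DMSO control, was fitted four-parametrically for IC50.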
(In general: Reporter assays use an easily measured gene product as a stand-in for the process of interest.)

Assay [2] deals with HIF2α PAS-B domain (236-350, biotinylated on the N-terminus) (Homo sapiens (Human), UniProt Q99814).
Sequence of HIF2α PAS-B domain (236-350, biotinylated on the N-terminus) (Q99814 236-350): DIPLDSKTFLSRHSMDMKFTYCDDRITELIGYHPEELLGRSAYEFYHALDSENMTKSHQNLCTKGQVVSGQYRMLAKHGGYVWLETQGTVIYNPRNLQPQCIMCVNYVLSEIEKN
Description: The assay buffer contained 50 mM Tris-HCl pH7 (Sigma), 20 mM NaCl (Fluka), 0.02% BSA (Sigma), 0.005% Triton X-100 (Pierce) and 1 mM DTT (Fluka). After a 30 min incubation period, 5 μL Streptavidin PVT SPA Beads (Perkin Elmer) at 1.2 mg/mL, diluted in the buffer, were added.

As to `FC(F)OC1=CC(C(F)(F)F)=CN2C[C@@]3(CCC(F)(F)c4c3ccnc4Cl)N=C12` [Example 31, (S)-1′-chloro-8-(difluoromethoxy)-8′,8′-difluoro-6-(trifluoromethyl)-7′,8′-dihydro-3H,6′H-spiro[imidazo[1,2-a]pyridine-2,5′-isoquinoline]], the IC50 in assay [1] was determined as 246 nM; in assay [2], 9 nM.

Turning to `FC(F)OC1=CC(C(F)(F)F)=CN2C[C@@]3(CCOc4cc(C(F)(F)F)ccc43)N=C12` [Example 44, (S)-8′-(difluoromethoxy)-6′,7-bis(trifluoromethyl)-3′H-spiro[chroman-4,2′-imidazo[1,2-a]pyridine]], the 50% inhibitory concentration (IC50) came to 112 nM in assay [1] and 13 nM in assay [2].
